The text below walks through data of publication PMC6158189, “A pharmacological probe identifies cystathionine β-synthase as a new negative regulator for ferroptosis” (Cell Death & Disease, 2018).

“Also recorded” adds a separate entry of the source.

As a reminder, the IC50 is the concentration that gives 50% inhibition.

The subject of data set [1] is HepG2 cells. Briefly: colony formation (crystal violet). Conditions: 24 h treatment. The class given is cell-based, human. An excerpt:
Figure S12. CH004 inhibits the proliferation of cells via specifically targeting hCBS. (A-B) Dose-dependent curves of CH004 on the cell viability of CBS-stably-expressed HEK293T (A) or CBS-knockdown cells (B). Percentages of cell viability of CH004 obtained in Figure 4b were fitted to the non-linear equation using GraphPad Prism 5 to get the IC50 values of CH004 in respective cell lines (●, 293T-CBS WT cells; ○, 293T-EV; ▲, 293T-shCBS; △, 293T-shNT). Means ± SDs (n=3). […] HEK293T cells stably expressing of the lentiviral shRNA targeting CBS (shCBS) or control shRNA (shNT) were seeded at the density of ~ 3,000 cells per well in 96-well plates and the cell images in the bright field were acquired at indicated times by Image Xpress Micro® XLS (Molecular Devices, Sunnyvale, CA) under 10 × objective lens. Representative images of two independent experiments (n = 6 for each experiment) are shown in C. The cell numbers of images under 4 × objective lens of one representative experiment were calculated by Image Xpress Software and the data is shown in D. Means ± SDs (n=6). […] HepG2 cells were seeded in a 96-well plate at a density of 20000 cells per well and cultured for 24 h before treatment with indicated concentrations of CH004 for another 24 h. The colonies were stained with crystal violet and quantified by measuring the absorbance at 590 nm. […] Means ± SDs (n=3). […]

The subject of data set [2] is H22 mouse liver tumor cells in ICR mice. Conditions: 10 mg/kg/day i.v. The protocol:
Fig. 7 CH004 suppresses tumor growth in vivo. a–c CH004 reduces the growth rate of tumors in liver tumor xenograft mice model. Mice bearing liver tumor xenografts were treated with CH004 (10 mg/kg/d), cyclophophamide (CTX, 20 mg/kg/d) or PBS (Vehicle) for 21 days. The tumor volumes were measured every two days during day 6 to day 22 and the data was presented in a (n = 8). […] Mice body weight was measured along with the measurement of tumor volume (n = 8). Means ± SDS. Statistical analyses were performed on the raw data by one-way (c) or two-way ANOVA (a) with Bonferroni post-tests. The significance of the CH004-treated group compared to Vehicle was indicated with $ (a), whereas the comparison of the CTX group to Vehicle was with # (a). $, # or ***p < 0.001
The in vivo effect of CH004 on tumor growth was evaluated in a xenograft mice model of liver cancer. The experiment was independently performed by Jiangsu KeyGEN BioTECH Co. LTD (Jiangsu, China) and followed the standard procedures that were established and approved by the local Animal Care and Use Committee. Briefly, H22 mouse liver tumor cells were intraperitoneal injected into female ICR mice (SLAC Laboratory Animal Co. Ltd, Shanghai, China). 8 days later, mice with distended abdomen were killed, and the ascites was collected, washed and resuspended with PBS. 0.1 ml cell suspension with a density of 1 × 10^7/ml was subcutaneously injected into the right dorsum of ICR female mice (~20 g). The mice bearing H22 tumor cells were then randomized into groups (n = 8) on the following day after the implantation. Then, the mice were injected via a tail vein (i.v.) with PBS, CH004 (10 mg/kg) or cyclophosphamide (CTX, a known anticancer drug; 20 mg/kg) once per day and for 21 days. Tumor sizes were measured every 2 days starting from the day 6 using a caliper, and tumor volume was calculated using the formula V = length × width^2 × π / 6. The body weights of mice were recorded under the same conditions. The mice were sacrificed on day 22, and the tumors were taken out and weighted.

Data set [3] has as its system HepG2 cells. Put plainly: cell death, FITC Annexin V kit, flow cytometry. The class given is cell-based, human. Conditions: 40 μM, 12 h. The protocol: Fig. 4 CH004 arrests the cell cycle at the S phase. a CH004 reduces the cell viability of HEK293T and HepG2 cells. HEK293T or HepG2 cells were treated with indicated concentrations of CH004 for 24 h before the cell number was analyzed using the CellTiter96® Aqueous One Solution Cell Proliferation Assay (Promega, Materials and Methods). The means at each concentration of one representative experiment are shown as percentages of DMSO (control, 100%). Means ± SDs (n = 3). b Overexpression of hCBS or knock-down of hCBS counteracts the growth inhibition exerted by CH004 in HEK293T cells. Indicated HEK293T stable cell lines were treated with the CH004 or DMSO for 24 h. Then, the cell viability was quantified with the CellTiter 96® Aqueous One Solution Cell Proliferation Assay under the standard protocol (Promega). […] The efficacy for CBS overexpression and knock-down in HEK293T cells was determined by Western blotting using an anti-CBS antibody (3E1, 1:2000; Abnova). c CH004 induces cell death in HEK293T and HepG2 cells. […] HEK293T cells were incubated with indicated compounds for 12 h, and the DNA content was quantified with propidium iodide to analyze the cell cycle distribution by flow cytometry (e). The cell cycle distributions for HEK293T-shNT and HEK293T-shCBS cells were accordingly analyzed and are shown in f. […]
(Flow cytometry measures light scatter and fluorescence of single cells or particles in a stream.)

On to `Cn1nc(Cc2ccccc2)nc2c(=O)n(C)c(=O)nc1-2` [CH004, 3-benzyl-1,6-dimethylpyrimido[5,4-e][1,2,4]triazine-5,7(1H,6H)-dione], for which the IC50 in data set [1] was roughly 8 µM; in data set [1] (Homo sapiens, HepG2, 24 h), roughly 7.9 µM. Besides, the “reduction of tumor volume or weight” value in data set [2] (21-day treatment) is recorded as “more than half”. Also, the “effect on total body weight” value in data set [2] (21 days) was “did not substantially affect; also recorded: hardly affects”. Further, the “growth rate of tumor” value in data set [2] (since day 12 of treatment, p < 0.001) is given as “significantly reduced”. In data set [3], the “increase in cell death” value was ~ 80%.
